Consider one compound from US8916604B2, “Compositions and methods for epigenetic modification of nucleic acid sequences” (Rutgers, The State University of New Jersey, priority 2011, dated 2014).

For test [1], the system named is Nrf2. The test is described as follows: Western blot of TRAMP dorso-lateral prostate tissues. The class given is in vivo, mouse. The conditions noted are these: D-G1 and D-G2; undetectable in control. Here is the method: (§1) The TRAMP C1 cells or dorso-lateral prostate tissues collected from treated and control groups were pooled and homogenized with RIPA buffer (Cell Signaling Technology, Danvers, Mass., U.S.A.) and 10 μg/ml protease inhibitor cocktail (EMD Chemicals, Philadelphia, Pa., U.S.A.). Protein (20 μg) was loaded onto 4-15% SDS-PAGE (Bio-Rad Laboratories, Hercules, Calif., U.S.A.). After separation by SDS-PAGE, the protein was transferred onto nitrocellulose membrane (Millipore Corp., Billerica, Mass., U.S.A.), and then was blocked in 5% bovine serum albumin (BSA) (Fisher Scientific, Fair Law, J. U.S.A.) in tris buffer saline tween-20 (TBST) solution for 1 h. […] After washing min 4 times with TBST solution, the immunoreactive bands were determined by adding SuperSignal West Femto mix (1:1 mix of stable peroxide buffer and luminol/enhancer solution (Thermo Scientific, Rockford, Ill., U.S.A.) to detect immunoreactive bands. The bands were visualized and quantified by BioRad ChemiDoc XRS system (Hercules, Calif., U.S.A.). The primary antibodies used were β-actin, Nrf2, NQO1 (Santa Cruz Biotechnology, Santa Cruz, Calif., U.S.A.), HDAC1, HDAC2, HDAC3, HDAC4 (Cell Signaling Technology Inc., Danvers Mass., U.S.A.), HDAC8 (Proteintech Group Inc., Chicago, Ill., U.S.A.) and DNMT1, DNMT3a, DNMT3b (Imgenex, San Diego, Calif., U.S.A.). […]
On the technique in general: A western blot detects proteins with antibodies after separation by electrophoresis.

Test [2] concerns NQO1. Described as above. It counts as in vivo, mouse. The conditions noted are these: D-G1 and D-G2; undetectable in control. Here is the method: as §1
In test [3] the test system is PCNA. Description: IHC staining of TRAMP prostate tissue, cell proliferation. The class given is in vivo, mouse. The conditions noted are these: D-G1 (16 weeks) or D-G2 (12 weeks) vs control. The protocol:
Sections (4 μm) were cut from the paraffin embedded prostate tissue and mounted on glass slides. The slides Were deparafinized in xylene and antigen unmasking was performed by applying proteinase K digestion directly on the slides for 15 min. Endogenous peroxidase was blocked by incubating in 3% […] for 5 min, and ApopTag Plus Peroxidase In Situ Apoptosis Detection Kit (Millipore, Temecula, Calif., U.S.A.) was used to detect apoptotic cells. For detection of proliferative cells, monoclonal mouse anti-proliferating cell nuclear antigen (PCNA) antibody (Clone PC10, 1:50, Dako North America, Carpinteria, Calif., U.S.A.) was used (12). The staining was performed following as the manufacturer's protocols. Anti-5-methylcytosine (5-MC) mouse monoclone antibody (Clone 162 33 D3, 1:50, EMD Chemicals, Philadelphia, Pa., U.S.A.) was used to detect genome-wide methylated DNA. […] Quantitation of IHC staining was done using the Aperio ScanScope® GL system according to the manufactures protocol (Aperio Technologies Inc., Vista, Calif., U.S.A.). […] The Aperio ImageScopoe software (v 10.1.3.2028) allowed the unbiased quantification and quantitative analysis of the IHC staining of biomarkers of prostate tumor samples obtained from untreated control versus the treated TRAMP mice.

Test [4] concerns DNMT1. Description: qPCR in TRAMP C1 cells. The class given is cell-based, mouse. The conditions noted are these: 5 μM and 10 μM, p<0.05. Here is the method: (§2) The DIM used in the study contains approximately 98% of DIM purchased from Sigma-Aldrich t St. Louis, Mo., USA), TRAMP C1 cells (provided by Dr. Barbara Foster, Department of Pharmacology and Therapeutics, Roswell Park Cancer institute, Buffalo. NY), originally derived from TRAMP prostate tumor, were cultured in Dulbecco's Modified Eagle's Medium (Invitrogen Corp., Carlsbad, Calif. U.S.A.) supplemented with 10% (V/V) fetal bovine serum (FBS) (Invitrogen Corp., Grand Island, N.Y., U.S.A.), penicillin 100 U/ml, and streptomycin 100 μg/ml (Invitrogen Corp., Grand Island, N.Y., U.S.A.), Cells were maintained in a humidified incubator with 5% CO2 at 37° C. Cells were seeded in 10 cm plates for 24 h and then treated with 0.1% DMSO (control) or different concentrations of DIM in 1% FBS containing medium for 5 days. The medium was changed every 2 days (20), Total RNA were extracted from DIM treated TRAMP C1 cells and were reversed transcribed. The primers, DNMT1, DNMT3a, DNMT3b, NQO1, HO-1, GSTm1, UGT1a1 and control β-actin of qPCR are listed in Table 5 (Integrated DNA. Technologies, Coralville, Iowa, U.S.A.), The qPCR reactions were carried out with 1 μl cDNA product, 50 nM of each primer, and Power SYBR Green master mix (Applied Biosystems, Foster City, Calif., U.S.A.) in 10 μl reactions. The reactions were performed using an ABI Prism 7900HT sequence detection system; specificity of amplification was verified by first-derivative inciting curve analysis using the ABI software (SDS 2.3, Applied Biosystems, Foster City, Calif., U.S.A.). Relative quantification of gene expression profile was calculated using a ΔΔCt method. (RQ manager, Applied Biosystems, Foster City, C. CA, U.S.A.) as we have performed previously (Barve et al., J Pharm Sci., 2008; 94: 4528-45). Three independent experiments were carried out showing similar results. The results are presented as mean±SD.
A general note: In qPCR the cycle at which signal appears reflects the starting amount.

Test [5] has as its system GSTm1. Description: qPCR in TRAMP C1 cells. The class given is cell-based, mouse. Particulars: 5 days. The protocol: as §2
The test system of test [6] is Nrf2. Description: qPCR in TRAMP C1 cells. It counts as cell-based, mouse. Particulars: 5 days. The protocol: as §2
Test [7] relates to DNMT3a. Description: qPCR in TRAMP C1 cells. The class given is cell-based, mouse. The conditions noted are these: 5 μM, p<0.05. Here is the method:
as §2

For test [8], the system named is DNMT3b. Description: qPCR in TRAMP C1 cells. Particulars: 5 μM and 10 μM. The class given is cell-based, mouse. The protocol: as §2
Test [9] deals with NQO1. Description: qPCR in TRAMP C1 cells. It counts as cell-based, mouse. Particulars: 5 days. Here is the method:
as §2

Regarding `c1ccc2c(Cc3c[nH]c4ccccc34)c[nH]c2c1` [DIM, 3,3′-diindolylmethane], the Nrf2 protein expression result in [1] was “induced”. Further, the NQO1 protein expression result in test [2] was “induced”. For the same compound, in test [3], the “PCNA staining (cell proliferation)” value was “significantly lower levels”. The “DNMT1 mRNA expression” value in test [4] is “significantly suppressed”. Besides, the “GSTm1 mRNA expression” value in test [5] is recorded as “enhanced”. In [6], the “Nrf2 mRNA expression” value is “enhanced”. The “DNMT3a mRNA expression” value in test [7] is “suppressed”. Further, the “DNMT3b mRNA expression” value in test [8] is recorded as “suppressed”. For the same compound, in test [9], the “NQO1 mRNA expression” value is given as “enhanced”.
